From US6756376B1, “Tricyclic azaindolizine derivatives having an sPLA2-inhibitory activities” (Shionogi & Co., Ltd., priority 1999, dated 2004)

Columns and labels:
human type I sPLA2 = human type I sPLA2 (Homo sapiens, UniProt P04054); assay: Inhibition test of human secretory phospholipase A2, chromogenic assay, Type I enzyme; format: biochemical; details: human type I enzyme 90 ng/well, absorbance change 30 min, OD 405 nm
Text: (§1) In order to identify and evaluate an inhibitor of recombinant human secretory phospholipase A2, the following chromogenic assay is utilized. The assay herein has been applied for high volume screening wherein 96 well microtiterplate is used. A general explanation for such assay is described in “Analysis of Human Synovial Fluid Phospholipase A2 on Short Chain Phosphatidylcholine-Mixed Micelles: Development of a Spectrophotometric Assay Suitable for a Micortiterplate Reader” (Analytical Biochemistry, 204, pp 190-197, 1992 by Laure. J. Reynolds. Lori L. Hughes and Edward A. Dennis: the disclosure of which is incorporated herein for reference.
Type I enzyme: sPLA2 solution (330 ng/μl) (described in A. Kanda et. al., Biochimica et Biophysica Acta. 1171 (1992) 1-10) is dissolved in the assay (enzyme solution 27 μl is diluted with 1973 μl of the reaction buffer).
(§2) 1) 0.106 ml of the substrate solution is put in a centrifugal tube, and nitrogen gas is jetted to remove the solvent. 0.54 ml of Triton-X 100 is added thereto, the mixture is stirred, thereafter it is sonified in a bath type sonification to dissolve. To the resulting product are added 17.8 ml of the reaction buffer and 0.46 ml of DTNB, and 0.18 ml each of the admixture is poured to wells of the 96 well microtiterplate.
(§3) 2) 10 μl of a test compound (or solvent blank) are added in accordance with alignment of plates which has been previously set.
(§4) 3) Incubation is effected at 40° C. for 15 minutes.
(§5) 4) 90 ng/well in case of human type I enzyme, 50 ng/well in case of human type II enzyme, 40 μl/well in case of human type V enzyme, 15 μl/well in case of human type X enzyme were reacted.
(§6) 5) Changes in absorbancy for 30 minutes for humane type I, type II, and type X enzyme and for 45 min for human type V enzyme, are measured by a plate reader, and inhibition activity was calculated (OD: 405 nm).
(§7) 6) IC50 was determined by plotting log concentration with respect to inhibition values within 10% to 90% inhibiting range.

human type II sPLA2 = biological target: T1, human type II sPLA2 (Homo sapiens, UniProt P14555); assay: Inhibition test of human secretory phospholipase A2, chromogenic assay, Type II enzyme; format: biochemical; details: human type II enzyme 50 ng/well, absorbance change 30 min, OD 405 nm
T1 sequence (P14555 21-144): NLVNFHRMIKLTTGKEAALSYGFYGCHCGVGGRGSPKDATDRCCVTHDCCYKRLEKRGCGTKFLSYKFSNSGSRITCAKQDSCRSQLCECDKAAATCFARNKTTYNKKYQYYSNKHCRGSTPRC
Text: as §1
Type II enzyme: 1 mg of sPLA2 is dissolved in 1 ml of an enzyme buffer. Thereafter, the solution is maintained at 4° C. In the assay, 5 >l of the solution is diluted with 1995 μl of the reaction buffer to be used.
as §2, §3, §4, §5, §6, §7

human type V sPLA2 = biological target: T2, human type V sPLA2 (Homo sapiens, UniProt P39877); assay: Inhibition test of human secretory phospholipase A2, chromogenic assay, Type V enzyme; format: biochemical; details: human type V enzyme (CHO supernatant) 40 μl/well, absorbance change 45 min, OD 405 nm
T2 construct: made in house; unpurified culture supernatant used
T2 sequence (P39877 21-138): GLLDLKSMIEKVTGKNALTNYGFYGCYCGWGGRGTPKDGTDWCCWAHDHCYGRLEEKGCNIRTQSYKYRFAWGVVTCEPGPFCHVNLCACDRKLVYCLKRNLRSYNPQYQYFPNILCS
Text: (§8) In order to identify and evaluate an inhibitor of recombinant human secretory phospholipase A2, the following chromogenic assay is utilized. The assay herein has been applied for high volume screening wherein 96 well microtiterplate is used. A general explanation for such assay is described in “Analysis of Human Synovial Fluid Phospholipase A2 on Short Chain Phosphatidylcholine-Mixed Micelles: Development of a Spectrophotometric Assay Suitable for a Micortiterplate Reader” (Analytical Biochemistry, 204, pp 190-197, 1992 by Laure. J. Reynolds. Lori L. Hughes and Edward A. Dennis: the disclosure of which is incorporated herein for reference. Type V and Type X enzymes: cDNA sequences encoding human type V and Type X sPLA2 (Chen et., al., J. Biol. Chem., 1994. 269, 2365-2368 and Cupillard et., al., J. Biol. Chem., 1997, 272, 15745-15762) were inserted into downstream of promoter of pSVL SV40 Late Promoter Expression Vector (Amersham Pharmacia Biotech K. K.), mammalian cell expression vector, forwardly. The recombinant expression vectors were transfected into CHO host cells by LipofectAMINE regent (Gibco BRL.) according to the attached manual and the cells expressed each of human type V and type X sPLA2 stably. After each expressing cells were cultured in σ-MEM medium including 10% fetal serum albumin for 3 days, the cells supernatant were collected and measured enzymatic activity. 1) 0.106 ml of the substrate solution is put in a centrifugal tube, and nitrogen gas is jetted to remove the solvent. 0.54 ml of Triton-X 100 is added thereto, the mixture is stirred, thereafter it is sonified in a bath type sonification to dissolve. To the resulting product are added 17.8 ml of the reaction buffer and 0.46 ml of DTNB, and 0.18 ml each of the admixture is poured to wells of the 96 well microtiterplate. 2) 10 μl of a test compound (or solvent blank) are added in accordance with alignment of plates which has been previously set. 3) Incubation is effected at 40° C. for 15 minutes. 4) 90 ng/well in case of human type I enzyme, 50 ng/well in case of human type II enzyme, 40 μl/well in case of human type V enzyme, 15 μl/well in case of human type X enzyme were reacted. 5) Changes in absorbancy for 30 minutes for humane type I, type II, and type X enzyme and for 45 min for human type V enzyme, are measured by a plate reader, and inhibition activity was calculated (OD: 405 nm). 6) IC50 was determined by plotting log concentration with respect to inhibition values within 10% to 90% inhibiting range.

human type X sPLA2 = biological target: T3, human type X sPLA2 (Homo sapiens, UniProt O15496); assay: Inhibition test of human secretory phospholipase A2, chromogenic assay, Type X enzyme; format: biochemical; details: human type X enzyme (CHO supernatant) 15 μl/well, absorbance change 30 min, OD 405 nm
T3 construct: made in house; unpurified culture supernatant used
T3 sequence (O15496 43-165): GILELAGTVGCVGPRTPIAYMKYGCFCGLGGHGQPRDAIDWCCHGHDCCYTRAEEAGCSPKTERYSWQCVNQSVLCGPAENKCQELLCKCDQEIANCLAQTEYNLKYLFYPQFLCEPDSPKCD
Text: as §8

Sequence of human type I sPLA2 (P04054 23-148): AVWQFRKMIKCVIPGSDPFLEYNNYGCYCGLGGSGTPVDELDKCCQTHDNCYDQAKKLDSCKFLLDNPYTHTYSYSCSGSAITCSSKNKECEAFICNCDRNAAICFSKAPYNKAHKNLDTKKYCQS

SMILES	IC50 (human type I sPLA2)	IC50 (human type II sPLA2)	IC50 (human type V sPLA2)	IC50 (human type X sPLA2)	melting point
Cc1ccc(Cc2c3c(c4c(OCC(=O)O)cc(C)nn24)C(C(N)=O)=CCC3)cc1 [Compound I-3]	460 nM	11 nM	2 nM	10 nM	–
Cc1ccc(Cc2c3c(c4c(OC(C)C(=O)O)cc(C)nn24)C(C(N)=O)=CCC3)cc1 (stereo not drawn) [Compound I-4]	139 nM	21 nM	2 nM	7 nM	–
Cc1cc(OCC(=O)O)c2c3c(c(Cc4ccc(Cl)cc4)n2n1)CCC=C3C(N)=O [Compound I-5]	147 nM	8 nM	1 nM	6 nM	–
Cc1cc(OC(C)C(=O)O)c2c3c(c(Cc4ccc(Cl)cc4)n2n1)CCC=C3C(N)=O (stereo not drawn) [Compound I-6]	86 nM	17 nM	1 nM	5 nM	–
COc1cccc(Cc2c3c(c4c(OCC(=O)O)cc(C)nn24)C(C(N)=O)=CCC3)c1 [Compound I-7]	215 nM	10 nM	2 nM	16 nM	–
COc1cccc(Cc2c3c(c4c(OC(C)C(=O)O)cc(C)nn24)C(C(N)=O)=CCC3)c1 (stereo not drawn) [Compound I-8]	76 nM	23 nM	2 nM	12 nM	–
Cc1cn2c(CC3CCCCC3)c3c(c2c(OC(C)C(=O)O)n1)C(C(N)=O)=CCC3 (stereo not drawn) [Compound I-14]	57 nM	14 nM	1 nM	1 nM	–

Now from value to compound:

IC50 (human type I sPLA2)	IC50 (human type II sPLA2)	IC50 (human type V sPLA2)	IC50 (human type X sPLA2)	melting point	SMILES
170 nM	7 nM	2 nM	4 nM	256 to 258 °C (dec.)	Cc1cc(OCC(=O)O)c2c3c(c(Cc4ccccc4)n2n1)CCC=C3C(N)=O [Compound I-1]
79 nM	15 nM	3 nM	4 nM	–	Cc1cc(OC(C)C(=O)O)c2c3c(c(Cc4ccccc4)n2n1)CCC=C3C(N)=O (stereo not drawn) [Compound I-2]
51 nM	8 nM	0.2 nM	1 nM	–	NC(=O)C1=CCCc2c1c1c(OCC(=O)O)cc(-c3ccccc3)nn1c2Cc1ccccc1 [Compound I-9]
49 nM	6 nM	0.2 nM	2 nM	–	COc1cccc(Cc2c3c(c4c(OCC(=O)O)cc(-c5ccccc5)nn24)C(C(N)=O)=CCC3)c1 [Compound I-10]
234 nM	9 nM	1 nM	6 nM	–	Cc1cn2c(Cc3ccccc3)c3c(c2c(OCC(=O)O)n1)C(C(N)=O)=CCC3 [Compound I-11]
86 nM	8 nM	2 nM	4 nM	–	NC(=O)C1=CCCc2c1c1c(OCC(=O)O)nccn1c2Cc1ccccc1 [Compound I-12]
93 nM	19 nM	4 nM	7 nM	–	Cc1cn2c(Cc3ccccc3)c3c(c2c(OC(C)C(=O)O)n1)C(C(N)=O)=CCC3 (stereo not drawn) [Compound I-13]
